# Data published in patent US20130115522A1, “Manufacture of LiPO2F2” (SOLVAY SA, priority 2010, published 2013).
# Assay: Solubility of LiPO2F2 (and by-product salts) in organic solvents
# Type: physicochemical
# Description: If it is desired to isolate LiPO2F2 and Li2PO3F from any LiF, polar aprotic solvents can be applied. For example, dialkyl carbonates are suitable for this purpose. Other solvents are acetone, isopropanol, tetrahydrofurane, ethyl acetate, acetonitrile, and diethyl carbonate. If it is desired to isolate selectively LiPO2F2, propylene carbonate was identified as very suitable solvent because LiPO2F2 is soluble therein, and Li2PO3F and also LiF are not. Other very suitable solvents are diethyl carbonate, a mixture of dimethyl carbonate and propylene carbonate, acetonitrile, dimethoxyethane and acetone. The solubility of LiPO2F2 in these solvents at ambient temperature is compiled in the following table 1.
# Under inert gas (nitrogen), pure LiPO2F2 was dissolved in propylene carbonate at about 20° C. such that a solution is obtained comprising about 2.75% by weight of LiPO2F2.
# Under inert gas (nitrogen), pure LiPO2F2 was dissolved in the respective solvent or solvent mixture at about 20° C. such that a solution containing the amounts of dissolved LiPO2F2 given in the following table 3 were achieved. The data for solution No. 1 was taken from example 4, the data for solutions No. 2 to 6 of table 3 correspond to those of table 1.
compound,measurement,setting,value
[F-].[Li+] [LiF],Solubility in acetone (in words),acetone,very low solubility
same,Solubility in dimethoxyethane (in words),dimethoxyethane,at most in neglectable amounts
same,"Solubility in dimethyl carbonate, propylene carbonate and mixtures thereof (in words)","dimethyl carbonate, propylene carbonate and mixtures thereof",at most in neglectable amounts
same,Solubility in propylene carbonate (in words),propylene carbonate,are not
